Active and inactive are the calls of the source. The calls are words filed in the database; no cut-off is given here.
How the values were obtained:
[1] = target: T1, Metabotropic glutamate receptor 5 (Homo sapiens, UniProt P41594); experiment: Displacement of [3H]MPEP in mGlu5 receptor (unknown origin) incubated for 60 mins by liquid scintillation counting method
[2] = target: T1, Metabotropic glutamate receptor 5
Description: Positive allosteric modulation of human mGlu5A receptor expressed in HEK293 cells coexpressing rat glutamate-aspartate transporter assessed as potentiation of L-glutamate-induced Ca2+ signal incubated for 60 mins by calcium 4 dye based FLIPR assay

[3] = target: T1, Metabotropic glutamate receptor 5; remark: listed apart in the source
Description: Agonist activity at human mGlu5A receptor expressed in HEK293 cells coexpressing rat glutamate-aspartate transporter assessed as induction of Ca2+ release by calcium 4 dye based FLIPR assay

[4] = test system: Mus musculus; experiment: Neurotoxicity in C57/BL6 mouse assessed as induction of convulsion at 30 mg/kg, ip; assay type: toxicity, organism-based; conditions: in vivo
[5] = Protein binding in plasma (unknown origin); assay type: ADME, cell-free; conditions: read-out: PPB (converted)
[6] = test system: Mus musculus; experiment: Ex vivo receptor occupancy of mGlu5 receptor in C57/BL6 mouse at 10 to 30 mg/kg, ip relative to control; assay type: functional
[7] = target: Metabotropic glutamate receptor 1 (Homo sapiens) (UniProt Q13255); experiment: Positive allosteric modulation of mGlu1 receptor (unknown origin)
[8] = target: Metabotropic glutamate receptor 1 (Homo sapiens) (UniProt Q13255); experiment: Negative allosteric modulation of mGlu1 receptor (unknown origin)
[9] = target: Metabotropic glutamate receptor 1 (Homo sapiens) (UniProt Q13255); experiment: Agonist activity at mGlu1 receptor (unknown origin)
[10] = target: Metabotropic glutamate receptor 2 (Homo sapiens) (UniProt Q14416); experiment: Positive allosteric modulation of mGlu2 receptor (unknown origin)
[11] = target: Metabotropic glutamate receptor 2 (Homo sapiens) (UniProt Q14416); experiment: Negative allosteric modulation of mGlu2 receptor (unknown origin)
[12] = target: Metabotropic glutamate receptor 2 (Homo sapiens) (UniProt Q14416); experiment: Agonist activity at mGlu2 receptor (unknown origin)
[13] = target: Metabotropic glutamate receptor 3 (Homo sapiens) (UniProt Q14832); experiment: Positive allosteric modulation of mGlu3 receptor (unknown origin)
[14] = target: Metabotropic glutamate receptor 3 (Homo sapiens) (UniProt Q14832); experiment: Negative allosteric modulation of mGlu3 receptor (unknown origin)
[15] = target: Metabotropic glutamate receptor 3 (Homo sapiens) (UniProt Q14832); experiment: Agonist activity at mGlu3 receptor (unknown origin)
[16] = target: Metabotropic glutamate receptor 4 (Homo sapiens) (UniProt Q14833); experiment: Positive allosteric modulation of mGlu4 receptor (unknown origin)
[17] = target: Metabotropic glutamate receptor 4 (Homo sapiens) (UniProt Q14833); experiment: Negative allosteric modulation of mGlu4 receptor (unknown origin)
[18] = target: Metabotropic glutamate receptor 4 (Homo sapiens) (UniProt Q14833); experiment: Agonist activity at mGlu4 receptor (unknown origin)
[19] = target: Metabotropic glutamate receptor 6 (Homo sapiens) (UniProt O15303); experiment: Positive allosteric modulation of mGlu6 receptor (unknown origin)
[20] = target: Metabotropic glutamate receptor 6 (Homo sapiens) (UniProt O15303); experiment: Negative allosteric modulation of mGlu6 receptor (unknown origin)
[21] = target: Metabotropic glutamate receptor 6 (Homo sapiens) (UniProt O15303); experiment: Agonist activity at mGlu6 receptor (unknown origin)
[22] = target: Metabotropic glutamate receptor 7 (Homo sapiens) (UniProt Q14831); experiment: Positive allosteric modulation of mGlu7 receptor (unknown origin)
[23] = target: Metabotropic glutamate receptor 7 (Homo sapiens) (UniProt Q14831); experiment: Negative allosteric modulation of mGlu7 receptor (unknown origin)
[24] = target: Metabotropic glutamate receptor 7 (Homo sapiens) (UniProt Q14831); experiment: Agonist activity at mGlu7 receptor (unknown origin)
[25] = target: Metabotropic glutamate receptor 8 (Homo sapiens) (UniProt O00222); experiment: Positive allosteric modulation of mGlu8 receptor (unknown origin)
[26] = target: Metabotropic glutamate receptor 8 (Homo sapiens) (UniProt O00222); experiment: Negative allosteric modulation of mGlu8 receptor (unknown origin)
[27] = target: Metabotropic glutamate receptor 8 (Homo sapiens) (UniProt O00222); experiment: Agonist activity at mGlu8 receptor (unknown origin)
[28] = test system: Mus musculus; experiment: Cognitive enhancement effect in mouse assessed as reduction in time spent with familiar object in retention session at 0.3 to 3 mg/kg, sc treated for 60 mins prior to acquisition session measured after 24 hrs for 10 mins by novel object recognition assay; assay type: functional; conditions: read-out: MED
[29] = test system: Plasma; experiment: Total plasma concentration in mouse at 0.3 mg/kg, sc; assay type: ADME, organism-based; conditions: in vivo
[30] = test system: Brain; experiment: Total drug level in mouse brain at 0.3 mg/kg, sc; assay type: ADME, organism-based; conditions: in vivo, read-out: Drug uptake
[31] = test system: Rattus norvegicus; experiment: Reversal of NMDA antagonist MK-801-induced deficits in set shift performance in Sprague-Dawley rat assessed as reduction in number of trial required to achieve 8 consecutive correct selection at 0.1 to 3 mg/kg, sc pretreated for 25 mins followed by MK-801 injection measured after 35 mins by wisconsin card sorting test; assay type: functional; conditions: read-out: MED
[32] = test system: Mus musculus; experiment: Receptor occupancy of mGlu5 receptor in mouse at 0.3 mg/kg, sc relative to control; assay type: functional
[33] = test system: Plasma; experiment: Total plasma concentration in Sprague-Dawley rat at 0.1 mg/kg, sc; assay type: ADME, organism-based; conditions: in vivo
[34] = test system: Brain; experiment: Total drug level in Sprague-Dawley rat brain at 0.1 mg/kg, sc; assay type: ADME, organism-based; conditions: in vivo, read-out: Drug uptake
[35] = test system: Rattus norvegicus; experiment: Receptor occupancy of mGlu5 receptor in Sprague-Dawley rat at 0.1 mg/kg, sc relative to control; assay type: functional
[36] = Inhibition of human recombinant CYP450; assay type: ADME
[37] = target: Voltage-gated inwardly rectifying potassium channel KCNH2 (Homo sapiens, UniProt Q12809); experiment: Inhibition of human ERG by patch clamp method
[38] = species on record: Homo sapiens; experiment: Inhibition of sodium channel (unknown origin) at 10 uM by patch clamp method relative to control
[39] = target: T2, Progesterone receptor (Homo sapiens) (UniProt P06401); experiment: Antagonist activity at progesterone receptor (unknown origin)
T2 sequence (whole entry): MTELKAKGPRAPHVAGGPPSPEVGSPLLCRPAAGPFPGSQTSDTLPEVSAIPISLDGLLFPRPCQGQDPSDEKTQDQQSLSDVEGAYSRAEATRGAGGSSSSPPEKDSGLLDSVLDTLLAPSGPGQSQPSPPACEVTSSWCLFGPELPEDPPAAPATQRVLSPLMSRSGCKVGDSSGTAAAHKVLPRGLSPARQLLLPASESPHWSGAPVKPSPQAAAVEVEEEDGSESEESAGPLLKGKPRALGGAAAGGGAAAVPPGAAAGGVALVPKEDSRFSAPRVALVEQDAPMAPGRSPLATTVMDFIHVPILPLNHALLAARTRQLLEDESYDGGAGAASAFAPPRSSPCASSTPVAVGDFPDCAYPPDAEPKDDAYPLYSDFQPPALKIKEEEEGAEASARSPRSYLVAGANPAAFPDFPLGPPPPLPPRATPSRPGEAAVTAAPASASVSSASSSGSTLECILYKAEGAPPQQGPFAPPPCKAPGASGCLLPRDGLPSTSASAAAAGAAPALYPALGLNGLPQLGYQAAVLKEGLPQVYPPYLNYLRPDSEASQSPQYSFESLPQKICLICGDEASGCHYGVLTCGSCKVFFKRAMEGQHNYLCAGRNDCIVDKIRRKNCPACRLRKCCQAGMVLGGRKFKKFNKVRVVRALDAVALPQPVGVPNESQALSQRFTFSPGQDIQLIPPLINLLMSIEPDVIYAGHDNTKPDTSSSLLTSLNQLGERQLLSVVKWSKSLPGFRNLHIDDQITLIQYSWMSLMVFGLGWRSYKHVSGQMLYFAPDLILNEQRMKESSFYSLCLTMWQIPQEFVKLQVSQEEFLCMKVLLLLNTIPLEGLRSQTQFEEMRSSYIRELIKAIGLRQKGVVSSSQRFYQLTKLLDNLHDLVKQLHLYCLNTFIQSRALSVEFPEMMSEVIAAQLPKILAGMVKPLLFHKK

[40] = target: T2, Progesterone receptor (Homo sapiens); experiment: Agonist activity at progesterone receptor (unknown origin)
[41] = target: T3, Progesterone receptor (Homo sapiens, UniProt P06401); experiment: Inhibition of progesterone receptor (unknown origin)
T3 sequence (P06401 whole entry): T2 sequence (whole entry)

[42] = test system: Salmonella typhimurium; experiment: Mutagenicity in Salmonella typhimurium by Ames test in presence of s9 liver fraction; assay type: toxicity, organism-based; conditions: salmonella enterica subsp. enterica serovar typhimurium
[43] = test system: Salmonella typhimurium; experiment: Mutagenicity in Salmonella typhimurium by Ames test; assay type: toxicity, organism-based; conditions: salmonella enterica subsp. enterica serovar typhimurium
[44] = Oral bioavailability in rat at 1 mg/kg; assay type: ADME, organism-based; conditions: in vivo
[45] = Oral bioavailability in dog at 1 mg/kg; assay type: ADME, organism-based, Canis lupus familiaris; conditions: in vivo
[46] = Oral bioavailability in cynomolgus monkey at 1 mg/kg; assay type: ADME, organism-based, Macaca fascicularis; conditions: in vivo
[47] = Clearance in rat at 1 mg/kg, iv; assay type: ADME, organism-based; conditions: in vivo
[48] = Volume of distribution at steady state in rat at 1 mg/kg, iv; assay type: ADME, organism-based; conditions: in vivo, read-out: Vdss
[49] = Ratio of drug level in brain to plasma in rat at 1 mg/kg, iv; assay type: ADME, organism-based; conditions: read-out: BPR
[50] = test system: Rattus norvegicus; experiment: Neurotoxicity in rat assessed as neuronal necrosis in brain hippocampal slice at 100 mg/kg/day, po for 8 days by haematoxylin and eosin staining based assay; assay type: toxicity, organism-based; conditions: in vivo, 192 h
[51] = test system: Rattus norvegicus; experiment: Neurotoxicity in rat assessed as neuronal necrosis in brain auditory complex at 100 mg/kg/day, po for 8 days by haematoxylin and eosin staining based assay; assay type: toxicity, organism-based; conditions: in vivo, 192 h
[52] = Cmax in rat at 100 mg/kg, po measured on day1; assay type: ADME, organism-based; design: dose 100 mg/kg, route oral; conditions: in vivo
[53] = AUC (0 to 24 hrs) in rat at 100 mg/kg, po measured on day1; assay type: ADME, organism-based; design: time < 24 hr, dose 100 mg/kg, route oral; conditions: in vivo
[54] = test system: Rattus norvegicus; experiment: Toxicity in rat administered as repeated dosage for 2 weeks; assay type: organism-based; conditions: in vivo, 336 h
[55] = test system: Canis familiaris; experiment: Toxicity in dog administered as repeated dosage for 5 days; assay type: organism-based, Canis lupus familiaris; conditions: in vivo, 120 h
[56] = target: T1, Metabotropic glutamate receptor 5; remark: listed apart in the source
Description: Displacement of [3H]MPEPgamma in mGlu5 receptor (unknown origin) incubated for 60 mins by liquid scintillation counting method

Metabotropic glutamate receptor 1 (Homo sapiens), sequence (Q13255 19-1194 limits assumed): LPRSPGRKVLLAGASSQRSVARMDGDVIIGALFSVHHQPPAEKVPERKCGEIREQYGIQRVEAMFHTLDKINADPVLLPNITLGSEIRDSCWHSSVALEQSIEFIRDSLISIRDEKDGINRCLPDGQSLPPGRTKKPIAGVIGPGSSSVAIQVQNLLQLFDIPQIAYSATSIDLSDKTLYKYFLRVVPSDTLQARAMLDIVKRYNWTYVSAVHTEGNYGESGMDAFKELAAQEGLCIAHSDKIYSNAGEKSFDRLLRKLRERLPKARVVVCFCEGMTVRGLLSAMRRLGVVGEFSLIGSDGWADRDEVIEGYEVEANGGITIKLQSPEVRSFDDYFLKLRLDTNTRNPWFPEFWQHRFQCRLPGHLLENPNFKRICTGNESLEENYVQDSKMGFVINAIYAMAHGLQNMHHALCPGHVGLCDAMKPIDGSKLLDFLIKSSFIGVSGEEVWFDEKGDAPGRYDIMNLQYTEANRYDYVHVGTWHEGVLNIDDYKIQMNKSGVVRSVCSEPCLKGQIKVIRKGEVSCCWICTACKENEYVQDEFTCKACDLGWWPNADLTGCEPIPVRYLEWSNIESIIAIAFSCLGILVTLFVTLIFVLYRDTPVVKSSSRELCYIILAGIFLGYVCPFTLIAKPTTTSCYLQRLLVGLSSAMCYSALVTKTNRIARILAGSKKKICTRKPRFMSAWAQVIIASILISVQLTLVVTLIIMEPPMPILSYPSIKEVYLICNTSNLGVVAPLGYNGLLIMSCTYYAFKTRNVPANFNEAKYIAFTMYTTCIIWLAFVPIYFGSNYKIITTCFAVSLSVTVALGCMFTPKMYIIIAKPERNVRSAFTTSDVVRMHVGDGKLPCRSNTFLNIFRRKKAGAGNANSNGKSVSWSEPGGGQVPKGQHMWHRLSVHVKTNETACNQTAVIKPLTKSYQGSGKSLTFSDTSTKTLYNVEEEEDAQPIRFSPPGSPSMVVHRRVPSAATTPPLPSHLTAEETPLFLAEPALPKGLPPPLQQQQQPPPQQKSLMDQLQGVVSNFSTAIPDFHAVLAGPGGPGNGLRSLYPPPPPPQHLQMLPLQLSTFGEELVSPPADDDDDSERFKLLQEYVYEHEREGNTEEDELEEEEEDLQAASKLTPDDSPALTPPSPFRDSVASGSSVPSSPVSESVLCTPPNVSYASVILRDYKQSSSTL
T1 sequence (P41594 whole entry): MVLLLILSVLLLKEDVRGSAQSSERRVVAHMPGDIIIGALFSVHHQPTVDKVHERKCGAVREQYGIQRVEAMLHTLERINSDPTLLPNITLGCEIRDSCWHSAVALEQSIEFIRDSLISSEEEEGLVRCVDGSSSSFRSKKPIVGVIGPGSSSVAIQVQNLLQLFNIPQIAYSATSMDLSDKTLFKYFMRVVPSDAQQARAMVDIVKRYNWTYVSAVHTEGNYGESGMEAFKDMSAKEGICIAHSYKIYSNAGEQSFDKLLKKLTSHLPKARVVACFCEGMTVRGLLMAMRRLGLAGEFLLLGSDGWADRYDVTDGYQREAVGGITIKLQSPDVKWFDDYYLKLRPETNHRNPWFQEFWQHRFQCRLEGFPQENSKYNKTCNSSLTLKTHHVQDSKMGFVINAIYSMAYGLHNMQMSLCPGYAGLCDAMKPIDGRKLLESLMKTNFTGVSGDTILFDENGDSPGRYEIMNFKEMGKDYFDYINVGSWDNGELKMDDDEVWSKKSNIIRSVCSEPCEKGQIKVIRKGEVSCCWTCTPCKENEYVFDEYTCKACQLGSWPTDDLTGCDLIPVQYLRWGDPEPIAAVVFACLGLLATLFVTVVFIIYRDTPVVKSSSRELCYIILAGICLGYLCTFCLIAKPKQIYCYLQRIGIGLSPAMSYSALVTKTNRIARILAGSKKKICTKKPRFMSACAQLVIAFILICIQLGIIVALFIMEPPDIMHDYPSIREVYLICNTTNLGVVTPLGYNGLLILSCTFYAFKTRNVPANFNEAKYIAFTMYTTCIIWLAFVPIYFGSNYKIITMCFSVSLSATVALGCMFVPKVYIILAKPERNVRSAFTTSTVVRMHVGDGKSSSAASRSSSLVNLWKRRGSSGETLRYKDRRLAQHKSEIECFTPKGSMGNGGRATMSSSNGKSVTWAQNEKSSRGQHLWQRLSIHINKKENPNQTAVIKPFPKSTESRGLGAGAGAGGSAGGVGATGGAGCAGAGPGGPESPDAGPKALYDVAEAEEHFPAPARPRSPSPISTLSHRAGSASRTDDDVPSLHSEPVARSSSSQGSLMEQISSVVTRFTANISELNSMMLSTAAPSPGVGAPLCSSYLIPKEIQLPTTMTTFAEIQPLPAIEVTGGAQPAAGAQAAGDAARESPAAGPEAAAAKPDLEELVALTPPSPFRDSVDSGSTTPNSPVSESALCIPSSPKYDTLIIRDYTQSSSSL
Metabotropic glutamate receptor 6 (Homo sapiens), sequence (O15303 whole entry): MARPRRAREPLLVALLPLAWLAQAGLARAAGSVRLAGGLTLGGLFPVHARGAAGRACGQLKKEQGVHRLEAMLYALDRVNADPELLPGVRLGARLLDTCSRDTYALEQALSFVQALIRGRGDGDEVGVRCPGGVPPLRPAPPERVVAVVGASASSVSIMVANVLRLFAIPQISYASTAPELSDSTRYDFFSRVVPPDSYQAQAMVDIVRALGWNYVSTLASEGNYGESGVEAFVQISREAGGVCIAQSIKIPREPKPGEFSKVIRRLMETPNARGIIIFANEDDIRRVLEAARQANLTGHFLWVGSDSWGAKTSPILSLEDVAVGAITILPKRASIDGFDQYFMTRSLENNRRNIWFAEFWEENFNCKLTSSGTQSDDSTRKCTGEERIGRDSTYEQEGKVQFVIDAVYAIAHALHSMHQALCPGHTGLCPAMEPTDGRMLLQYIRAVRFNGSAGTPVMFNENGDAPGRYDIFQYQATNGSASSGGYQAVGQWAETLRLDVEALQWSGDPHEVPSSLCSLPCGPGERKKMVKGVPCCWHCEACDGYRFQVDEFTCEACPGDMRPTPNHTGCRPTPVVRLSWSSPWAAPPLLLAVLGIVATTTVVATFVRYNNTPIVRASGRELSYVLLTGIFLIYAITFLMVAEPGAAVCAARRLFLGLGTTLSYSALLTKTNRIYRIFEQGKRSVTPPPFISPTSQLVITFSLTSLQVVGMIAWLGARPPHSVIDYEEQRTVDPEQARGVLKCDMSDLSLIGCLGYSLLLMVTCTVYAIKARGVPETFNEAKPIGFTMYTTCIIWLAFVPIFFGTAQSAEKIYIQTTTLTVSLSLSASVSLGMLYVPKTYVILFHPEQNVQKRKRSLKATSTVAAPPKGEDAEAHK
Metabotropic glutamate receptor 4 (Homo sapiens), sequence (Q14833 whole entry): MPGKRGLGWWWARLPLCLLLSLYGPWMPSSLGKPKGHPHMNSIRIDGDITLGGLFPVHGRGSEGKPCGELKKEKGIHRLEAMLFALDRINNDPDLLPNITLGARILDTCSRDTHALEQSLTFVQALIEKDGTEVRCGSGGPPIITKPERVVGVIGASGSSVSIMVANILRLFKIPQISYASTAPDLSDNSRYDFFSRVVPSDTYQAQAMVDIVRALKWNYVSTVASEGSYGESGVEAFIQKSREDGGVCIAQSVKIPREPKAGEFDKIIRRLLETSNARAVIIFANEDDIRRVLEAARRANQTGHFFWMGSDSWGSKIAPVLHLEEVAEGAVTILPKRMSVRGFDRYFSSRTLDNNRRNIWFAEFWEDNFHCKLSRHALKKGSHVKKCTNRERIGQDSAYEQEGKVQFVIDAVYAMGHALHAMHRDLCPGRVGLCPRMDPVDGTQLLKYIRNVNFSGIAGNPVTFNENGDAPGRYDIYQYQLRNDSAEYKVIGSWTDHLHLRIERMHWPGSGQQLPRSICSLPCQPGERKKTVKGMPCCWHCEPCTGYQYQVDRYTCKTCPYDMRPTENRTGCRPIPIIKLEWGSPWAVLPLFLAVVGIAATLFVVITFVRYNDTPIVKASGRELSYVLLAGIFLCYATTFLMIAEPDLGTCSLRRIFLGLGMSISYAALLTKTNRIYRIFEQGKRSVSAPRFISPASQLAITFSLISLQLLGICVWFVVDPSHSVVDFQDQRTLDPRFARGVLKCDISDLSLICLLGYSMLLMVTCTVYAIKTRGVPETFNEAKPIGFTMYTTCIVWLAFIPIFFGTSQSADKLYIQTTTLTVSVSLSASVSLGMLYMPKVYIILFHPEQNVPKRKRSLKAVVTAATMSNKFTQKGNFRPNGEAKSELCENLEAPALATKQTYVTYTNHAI
Metabotropic glutamate receptor 2 (Homo sapiens), sequence (Q14416 19-872 limits assumed): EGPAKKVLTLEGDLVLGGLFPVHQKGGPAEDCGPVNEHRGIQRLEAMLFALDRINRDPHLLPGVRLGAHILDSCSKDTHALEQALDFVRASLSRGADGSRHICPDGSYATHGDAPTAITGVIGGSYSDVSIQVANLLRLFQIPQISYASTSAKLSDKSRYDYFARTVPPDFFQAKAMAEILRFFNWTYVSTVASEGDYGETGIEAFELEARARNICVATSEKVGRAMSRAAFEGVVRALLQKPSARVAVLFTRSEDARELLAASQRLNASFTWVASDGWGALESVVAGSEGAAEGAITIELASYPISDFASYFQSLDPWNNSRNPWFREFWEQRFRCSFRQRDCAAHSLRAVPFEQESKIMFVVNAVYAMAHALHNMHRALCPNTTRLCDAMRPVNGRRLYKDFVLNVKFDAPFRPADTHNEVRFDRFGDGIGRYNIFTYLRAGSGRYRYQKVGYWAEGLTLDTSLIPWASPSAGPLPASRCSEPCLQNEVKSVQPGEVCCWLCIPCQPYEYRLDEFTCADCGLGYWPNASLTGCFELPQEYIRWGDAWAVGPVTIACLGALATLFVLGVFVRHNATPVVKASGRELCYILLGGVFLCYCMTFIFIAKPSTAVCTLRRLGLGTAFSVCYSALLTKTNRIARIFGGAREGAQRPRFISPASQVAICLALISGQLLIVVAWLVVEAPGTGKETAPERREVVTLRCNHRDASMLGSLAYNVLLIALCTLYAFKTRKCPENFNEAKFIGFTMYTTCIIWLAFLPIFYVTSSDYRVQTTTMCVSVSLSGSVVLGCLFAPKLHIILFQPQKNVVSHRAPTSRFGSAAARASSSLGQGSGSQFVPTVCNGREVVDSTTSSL

## O=C1N[C@H](c2cccc(C#Cc3ccccc3)c2)[C@@H](c2cccc(F)c2)O1
[1]
  Ki: 6.5 nM
[2]
  EC50: 15 nM
[3]
  EC50: > 30000 nM

## O=C1N[C@H](c2cncc(C#Cc3ccccc3)c2)[C@@H](c2cc(F)ccc2F)O1
[4]
  Activity: Non-toxic
[5]
  fraction unbound: 0.007
[6]
  Occ: 94%
[7]
  Activity: > 10 µM
[8]
  Activity: > 10 µM
[9]
  Activity: > 10 µM
[10]
  Activity: > 10 µM
[11]
  Activity: > 10 µM
[12]
  Activity: > 10 µM
[13]
  Activity: > 10 µM
[14]
  Activity: > 10 µM
[15]
  Activity: > 10 µM
[16]
  Activity: > 10 µM
[17]
  Activity: > 10 µM
[18]
  Activity: > 10 µM
[19]
  Activity: > 10 µM
[20]
  Activity: > 10 µM
[21]
  Activity: > 10 µM
[22]
  Activity: > 10 µM
[23]
  Activity: > 10 µM
[24]
  Activity: > 10 µM
[25]
  Activity: > 10 µM
[26]
  Activity: > 10 µM
[27]
  Activity: > 10 µM
[28]
  minimal effective dose: 0.3 mg/kg
[29]
  concentration: 116 nM
[30]
  concentration: 178 nM
[31]
  minimal effective dose: 0.1 mg/kg
[32]
  Occ: 18%
[33]
  concentration: 34 nM
[34]
  concentration: 34 nM
[35]
  Occ: 19%
[36]
  IC50: ≥ 1300 nM
[37]
  IC50: 3600 nM
[38]
  inhibition: 40%
[39]
  inhibition: inactive
[40]
  Activity: inactive
[41]
  IC50: 2300 nM
[42]
  Activity: Non-toxic
[43]
  Activity: Non-toxic
[44]
  bioavailability: 100%
[45]
  bioavailability: 68%
[46]
  bioavailability: 50%
[47]
  clearance: 11 mL/min/kg
[48]
  Vd: 1.8 L/kg
[49]
  Kp: 1
[50]
  Activity: Non-toxic
[51]
  Activity: Non-toxic
[52]
  Cmax: 41000 nM
[53]
  AUC(0-t) at 24 h: 751 µM·h
[54]
  Activity: Non-toxic
[55]
  Activity: Non-toxic

## O=C1N[C@H](c2cc(C#Cc3ccccc3)ccn2)[C@@H](c2ccccc2)O1
[4]
  Activity: Non-toxic
[5]
  fraction unbound: 0.006
[2]
  EC50: > 3000 nM
[56]
  Ki: 10 nM
[3]
  EC50: > 3000 nM

Source: ChEMBL document CHEMBL3804767, “Discovery and Preclinical Evaluation of BMS-955829, a Potent Positive Allosteric Modulator of mGluR5” (ACS Med Chem Lett, 2016)
